What was measured:
[1] = Mutagenicity in Salmonella typhimurium TA98 at 30 to 5000 ug/plate incubated for 48 hrs in presence of Wistar-Han rat S9 fraction by Ames test; format: toxicity, subcellular; settings: salmonella enterica subsp. enterica serovar typhimurium, s9, 48 h
[2] = Toxicity in Wistar-Han rat assessed as effect on spontaneous locomotor activity at 60 mg/kg, po administered as single dose and measured upto 24 hrs by telemetric analysis; format: organism-based; settings: in vivo
[3] = Intrinsic clearance in rhesus monkey at 3 mg/kg, iv measured after 24 hrs by LC-MS/MS analysis; format: ADME, organism-based, Macaca mulatta; settings: in vivo
[4] = Cardiotoxicity in iv dose guinea pig assessed as increase in QTc interval at high dose administered continuously for 20 min by ECG analysis; format: toxicity, organism-based, Cavia porcellus; settings: in vivo
[5] = Toxicity in rhesus monkey assessed as lung type II pneumocyte hypertrophy at 200 to 800 mg/kg, po administered once daily for 7 days; format: organism-based, Macaca mulatta; settings: in vivo, 168 h, dose 200-800 mg/kg, time 7 day
[6] = Toxicity in rhesus monkey assessed as tolerance at 100 to 800 mg/kg, po administered once daily for 7 days; format: organism-based, Macaca mulatta; settings: in vivo, 168 h, dose 100-800 mg/kg, time 7 day
[7] = Total clearance in rhesus monkey at 3 mg/kg, iv measured after 24 hrs by LC-MS/MS analysis; format: ADME, organism-based, Macaca mulatta; settings: in vivo
[8] = MRT in Wistar-Han rat at 3 mg/kg, iv measured after 24 hrs by LC-MS/MS analysis; format: ADME, organism-based; settings: in vivo
[9] = Intrinsic clearance in Wistar-Han rat at 3 mg/kg, iv measured after 24 hrs by LC-MS/MS analysis; format: ADME, organism-based; settings: in vivo
[10] = Toxicity in Wistar-Han rat assessed as squamous hyperplasia of nonglandular stomach at 750 mg/kg, po administered once daily for 7 days; format: organism-based; settings: in vivo, 168 h, time 7 day
[11] = tested on: mouse BCRP; experiment: Efflux ratio of apparent permeability across basolateral to apical over apical to basolateral side in MDCK-II cells transfected with mouse BCRP incubated for 3 hrs by LC-MS/MS analysis; settings: dog
[12] = Toxicity in Wistar-Han rat assessed as body weight loss at 750 mg/kg, po administered once daily for 7 days; format: organism-based; settings: in vivo, 168 h, time 7 day
[13] = Toxicity in Wistar-Han rat assessed as degeneration of seminiferous epithelium in testes at 750 mg/kg, po administered once daily for 7 days; format: organism-based; settings: in vivo, 168 h, time 7 day
[14] = Toxicity in Wistar-Han rat assessed as clinical observations at 750 mg/kg, po administered once daily for 7 days; format: organism-based; settings: in vivo, 168 h, time 7 day
[15] = Unbound drug concentration in guinea pig plasma at 5 mg/kg, iv administered continuously for 20 mins; format: ADME, organism-based, Cavia porcellus; settings: in vivo
[16] = target: hERG (KCNH2) (Homo sapiens, UniProt Q12809); experiment: Inhibition of hERG expressed in CHO cells at 30 uM by QPatch voltage clamp assay relative to control; format: toxicity, cell-based; settings: CHO cells expressing hERG
[17] = MRT in rhesus monkey at 3 mg/kg, iv measured after 24 hrs by LC-MS/MS analysis; format: ADME, organism-based, Macaca mulatta; settings: in vivo
[18] = Toxicity in Wistar-Han rat assessed as erosion of nonglandular stomach at 750 mg/kg, po administered once daily for 7 days; format: organism-based; settings: in vivo, 168 h, time 7 day
[19] = Toxicity in Wistar-Han rat assessed as NOAEL measured after 7 days; settings: in vivo, time 7 day
[20] = AUC (0 to 24 hrs) in Wistar-Han rat at 48 mg administered twice a day by LC-MS/MS analysis; format: ADME; parameters: dose 48 mg; settings: in vivo
[21] = target: KCNQ1/KCNE1 (IKs, Kv7.1/MinK) (Homo sapiens, UniProt P15382+P51787); experiment: Inhibition of human KCNQ1/KCNE1 expressed in HEK293 cells at 30 uM by QPatch voltage clamp assay relative to control; format: cell-based; settings: HEK293 cells expressing human KCNQ1/KCNE1
Chain of KCNQ1/KCNE1 (IKs, Kv7.1/MinK) (P51787 whole entry): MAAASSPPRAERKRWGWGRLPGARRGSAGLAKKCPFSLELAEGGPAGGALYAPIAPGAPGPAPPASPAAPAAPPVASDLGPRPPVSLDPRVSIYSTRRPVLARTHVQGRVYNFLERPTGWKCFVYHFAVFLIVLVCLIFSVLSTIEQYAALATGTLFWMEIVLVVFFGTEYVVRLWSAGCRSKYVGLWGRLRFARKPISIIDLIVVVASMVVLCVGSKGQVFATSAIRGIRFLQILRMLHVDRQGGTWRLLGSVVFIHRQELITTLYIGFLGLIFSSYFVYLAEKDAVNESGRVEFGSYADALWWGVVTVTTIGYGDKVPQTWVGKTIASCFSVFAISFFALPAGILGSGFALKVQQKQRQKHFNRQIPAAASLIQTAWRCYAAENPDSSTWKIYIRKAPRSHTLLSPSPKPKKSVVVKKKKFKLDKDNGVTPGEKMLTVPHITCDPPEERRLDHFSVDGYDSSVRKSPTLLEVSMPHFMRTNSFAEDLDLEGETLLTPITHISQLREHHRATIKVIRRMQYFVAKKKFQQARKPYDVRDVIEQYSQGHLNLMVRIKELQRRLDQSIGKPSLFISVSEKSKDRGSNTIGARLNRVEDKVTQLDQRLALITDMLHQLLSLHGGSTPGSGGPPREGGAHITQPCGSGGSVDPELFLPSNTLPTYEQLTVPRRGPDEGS

[22] = tested on: rat Mdr1a P-gp; experiment: Apparent permeability across apical to basolateral side in LLC-PK1 cells transfected with rat Mdr1a P-gp incubated for 3 hrs by LC-MS/MS analysis; settings: pig
[23] = AUC in rhesus monkey at 800 mg/kg, po administered once daily for 7 days; format: ADME, organism-based, Macaca mulatta; parameters: time 7 day, dose 800 mg/kg, route po; settings: in vivo
[24] = target: Leucine-rich repeat serine/threonine-protein kinase 2 (Homo sapiens, UniProt Q5S007, G2019S); experiment: Inhibition of recombinant N-terminal GST-fused LRRK2 […] mutant (970 to 2527 residues) (unknown origin) using LRRKtide peptide as substrate assessed as inhibition of substrate phosphorylation preincubated with compound for 15 mins followed by substrate addition and measured after 90 mins in presence of ATP by TR-FRET assay
Chain of Leucine-rich repeat serine/threonine-protein kinase 2 (Q5S007 whole entry G2019S, the tested form may be a part): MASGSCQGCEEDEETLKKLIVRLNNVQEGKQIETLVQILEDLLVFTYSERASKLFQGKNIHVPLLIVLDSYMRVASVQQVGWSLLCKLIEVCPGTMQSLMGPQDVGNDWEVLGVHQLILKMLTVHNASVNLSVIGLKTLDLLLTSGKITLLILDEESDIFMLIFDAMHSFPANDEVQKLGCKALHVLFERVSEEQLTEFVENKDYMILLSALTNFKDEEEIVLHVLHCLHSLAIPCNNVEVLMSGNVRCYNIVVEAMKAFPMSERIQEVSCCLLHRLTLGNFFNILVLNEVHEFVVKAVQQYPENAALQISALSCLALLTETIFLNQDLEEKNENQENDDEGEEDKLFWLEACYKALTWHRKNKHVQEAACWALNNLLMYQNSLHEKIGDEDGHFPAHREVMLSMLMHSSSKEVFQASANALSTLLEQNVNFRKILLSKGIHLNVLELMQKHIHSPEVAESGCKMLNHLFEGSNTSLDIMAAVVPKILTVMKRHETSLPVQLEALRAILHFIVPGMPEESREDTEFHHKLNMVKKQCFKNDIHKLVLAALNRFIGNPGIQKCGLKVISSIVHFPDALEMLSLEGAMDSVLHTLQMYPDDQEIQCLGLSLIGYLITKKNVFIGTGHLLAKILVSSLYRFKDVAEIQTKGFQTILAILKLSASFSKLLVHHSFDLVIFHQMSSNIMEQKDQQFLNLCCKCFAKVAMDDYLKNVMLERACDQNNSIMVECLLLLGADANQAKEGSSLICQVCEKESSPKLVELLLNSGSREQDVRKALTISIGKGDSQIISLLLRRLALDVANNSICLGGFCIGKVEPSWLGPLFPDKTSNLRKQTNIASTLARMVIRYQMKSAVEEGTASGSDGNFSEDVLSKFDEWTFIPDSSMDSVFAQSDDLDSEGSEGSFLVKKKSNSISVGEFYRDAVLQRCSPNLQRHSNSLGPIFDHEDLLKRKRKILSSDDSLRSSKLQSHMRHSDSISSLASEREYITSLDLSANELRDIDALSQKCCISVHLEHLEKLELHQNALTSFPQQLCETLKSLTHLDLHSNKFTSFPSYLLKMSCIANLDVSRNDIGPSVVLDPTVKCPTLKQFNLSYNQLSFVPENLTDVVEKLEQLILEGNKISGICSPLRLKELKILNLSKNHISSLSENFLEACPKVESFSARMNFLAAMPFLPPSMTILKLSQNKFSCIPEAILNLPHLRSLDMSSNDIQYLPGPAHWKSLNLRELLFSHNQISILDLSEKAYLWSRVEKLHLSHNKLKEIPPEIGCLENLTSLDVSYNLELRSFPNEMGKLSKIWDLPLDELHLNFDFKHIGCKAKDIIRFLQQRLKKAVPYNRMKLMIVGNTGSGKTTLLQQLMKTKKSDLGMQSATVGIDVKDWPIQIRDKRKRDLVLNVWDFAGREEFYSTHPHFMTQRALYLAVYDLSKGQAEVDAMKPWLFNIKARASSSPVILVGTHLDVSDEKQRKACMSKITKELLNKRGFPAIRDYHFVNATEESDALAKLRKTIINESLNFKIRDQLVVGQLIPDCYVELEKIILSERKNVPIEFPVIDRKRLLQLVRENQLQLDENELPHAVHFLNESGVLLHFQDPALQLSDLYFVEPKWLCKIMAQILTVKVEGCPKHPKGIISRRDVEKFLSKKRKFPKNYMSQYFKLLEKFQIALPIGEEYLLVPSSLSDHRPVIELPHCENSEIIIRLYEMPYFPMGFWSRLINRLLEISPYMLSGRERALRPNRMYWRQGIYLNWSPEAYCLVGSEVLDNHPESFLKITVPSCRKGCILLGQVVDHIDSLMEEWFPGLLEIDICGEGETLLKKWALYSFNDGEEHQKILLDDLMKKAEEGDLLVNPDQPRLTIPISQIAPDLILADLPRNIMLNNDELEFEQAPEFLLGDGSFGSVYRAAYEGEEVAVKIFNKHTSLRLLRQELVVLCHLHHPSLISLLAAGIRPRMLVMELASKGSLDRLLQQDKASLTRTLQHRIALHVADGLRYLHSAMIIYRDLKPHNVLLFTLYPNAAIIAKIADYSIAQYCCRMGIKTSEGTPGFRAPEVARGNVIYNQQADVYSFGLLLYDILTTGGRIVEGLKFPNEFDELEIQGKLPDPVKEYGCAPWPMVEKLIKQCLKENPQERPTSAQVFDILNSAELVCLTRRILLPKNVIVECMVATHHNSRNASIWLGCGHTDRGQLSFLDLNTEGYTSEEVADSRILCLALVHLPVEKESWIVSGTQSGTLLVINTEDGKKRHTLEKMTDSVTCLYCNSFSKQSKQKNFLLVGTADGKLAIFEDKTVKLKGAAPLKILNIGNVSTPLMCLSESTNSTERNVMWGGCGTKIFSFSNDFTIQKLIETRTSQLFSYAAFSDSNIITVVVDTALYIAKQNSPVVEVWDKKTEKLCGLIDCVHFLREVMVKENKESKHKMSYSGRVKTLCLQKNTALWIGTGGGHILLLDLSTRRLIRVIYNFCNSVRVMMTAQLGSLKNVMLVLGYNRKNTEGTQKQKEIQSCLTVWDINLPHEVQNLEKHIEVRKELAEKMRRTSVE

[25] = Mutagenicity in Salmonella typhimurium TA1535 at 30 to 5000 ug/plate incubated for 48 hrs in presence of Wistar-Han rat S9 fraction by Ames test; format: toxicity, subcellular; settings: salmonella enterica subsp. enterica serovar typhimurium, s9, 48 h
[26] = Protein binding in human plasma incubated for 4 hrs by equilibrium dialysis method; format: ADME, cell-free; settings: read-out: PPB (converted)
[27] = Total clearance in Beagle dog at 0.5 mg/kg, iv measured after 24 hrs by LC-MS/MS analysis; format: ADME, organism-based, Canis lupus familiaris; settings: in vivo
[28] = Genotoxicity in CHO-WBL cells incubated for 3 to 24 hrs in presence or absence of rat liver S9 fraction by micronucleus assay; format: toxicity, Cricetulus griseus; settings: chinese hamster, time 3-24 hrs
[29] = Toxicity in rhesus monkey assessed as body weight loss at 100 to 800 mg/kg, po administered once daily for 7 days; format: organism-based, Macaca mulatta; settings: in vivo, 168 h, dose 100-800 mg/kg, time 7 day
[30] = Unbound brain-to-plasma concentration ratio in iv dosed Wistar-Han rat administered as cassette dose by LC-MS/MS analysis; format: ADME, organism-based; settings: read-out: K(p,uu,brain)
[31] = In vivo inhibition of LRRK2 in rhesus monkey assessed as reduction in Ser935 phosphorylation in brain at 100 to 800 mg/kg, po administered once daily for 7 days; format: functional, Macaca mulatta; settings: dose 100-800 mg/kg, time 7 day
[32] = tested on: rat Mdrl1 P-gp; experiment: Efflux ratio of apparent permeability across basolateral to apical over apical to basolateral side in MDCK cells transfected with rat Mdrl1 P-gp incubated for 3 hrs by LC-MS/MS analysis; settings: dog, MDCK-MDR1
[33] = Mutagenicity in Salmonella typhimurium TA100 at 30 to 5000 ug/plate incubated for 48 hrs in presence of Wistar-Han rat S9 fraction by Ames test; format: toxicity, subcellular; settings: salmonella enterica subsp. enterica serovar typhimurium, s9, 48 h
[34] = tested on: Brain; experiment: In vivo inhibition of LRRK2 in Wistar-Han rat assessed as reduction in Ser935 phosphorylation in brain at 1 to 100 mg/kg, po measured after 2 hrs; format: functional; settings: dose 1-100 mg/kg
[35] = Cardiotoxicity in guinea pig assessed as effect on QRS interval at 5 to 20 mg/kg, iv administered continuously for 20 min by ECG analysis; format: toxicity, organism-based, Cavia porcellus; settings: in vivo, dose 5-20 mg/kg
[36] = AUC in rhesus monkey at 100 mg/kg, po administered once daily for 7 days; format: ADME, organism-based, Macaca mulatta; parameters: dose 100 mg/kg, time 7 day, route po; settings: in vivo
[37] = Kinetic solubility of compound in PBS at pH 7 measured after 24 hrs by UPLC/DAD analysis; format: physicochemical; settings: read-out: Kinetic_solubility
[38] = target: hERG (Homo sapiens, UniProt Q12809); experiment: Inhibition of hERG expressed in CHO cells at 10 uM by QPatch voltage clamp assay relative to control; format: toxicity, cell-based; settings: CHO cells expressing hERG
Chain of hERG (Q12809 whole entry): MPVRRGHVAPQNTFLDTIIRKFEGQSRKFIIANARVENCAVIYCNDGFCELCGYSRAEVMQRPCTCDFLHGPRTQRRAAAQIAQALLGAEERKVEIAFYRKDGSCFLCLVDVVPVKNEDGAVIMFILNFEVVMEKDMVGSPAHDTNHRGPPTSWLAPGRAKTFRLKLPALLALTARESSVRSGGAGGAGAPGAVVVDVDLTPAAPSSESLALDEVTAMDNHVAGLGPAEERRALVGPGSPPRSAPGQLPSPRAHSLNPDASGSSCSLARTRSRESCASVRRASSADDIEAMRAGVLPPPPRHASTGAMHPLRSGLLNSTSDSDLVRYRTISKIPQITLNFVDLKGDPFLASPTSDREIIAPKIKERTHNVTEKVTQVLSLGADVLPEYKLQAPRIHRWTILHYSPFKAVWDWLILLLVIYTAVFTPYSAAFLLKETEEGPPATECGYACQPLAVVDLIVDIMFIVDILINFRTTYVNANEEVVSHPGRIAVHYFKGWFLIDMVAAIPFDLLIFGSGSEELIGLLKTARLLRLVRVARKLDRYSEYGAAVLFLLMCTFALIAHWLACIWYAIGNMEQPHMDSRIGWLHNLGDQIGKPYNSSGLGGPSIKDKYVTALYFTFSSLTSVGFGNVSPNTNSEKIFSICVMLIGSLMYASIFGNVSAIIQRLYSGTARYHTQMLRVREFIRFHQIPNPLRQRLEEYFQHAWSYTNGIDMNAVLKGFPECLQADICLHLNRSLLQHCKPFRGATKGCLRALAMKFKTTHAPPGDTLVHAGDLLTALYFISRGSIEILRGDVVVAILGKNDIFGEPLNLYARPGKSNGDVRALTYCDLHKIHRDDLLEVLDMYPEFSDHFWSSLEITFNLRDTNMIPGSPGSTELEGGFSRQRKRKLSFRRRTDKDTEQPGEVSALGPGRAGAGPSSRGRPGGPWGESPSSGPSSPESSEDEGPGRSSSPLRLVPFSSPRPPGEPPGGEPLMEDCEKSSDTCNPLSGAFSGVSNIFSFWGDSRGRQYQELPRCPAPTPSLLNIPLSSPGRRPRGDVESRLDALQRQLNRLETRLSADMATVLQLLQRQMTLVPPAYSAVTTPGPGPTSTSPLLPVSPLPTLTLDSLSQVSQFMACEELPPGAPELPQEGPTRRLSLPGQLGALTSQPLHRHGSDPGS

[39] = Toxicity in Wistar-Han rat assessed as effect on mean blood pressure at 60 mg/kg, po administered as single dose and measured upto 24 hrs by telemetric analysis; format: organism-based; settings: in vivo

CL [3]: 736 mL/min/kg
clearance [7]: 22 mL/min/kg
MRT [8]: 2.2 h
CL [9]: 1435 mL/min/kg
efflux ratio at 3 h [11]: 2.6
Cp(f) [15]: 1290 nM
MRT [17]: 3.6 h
AUC [20]: 6 µM·h
inhibition at 30 µM [21]: 18%
Papp A→B at 3 h [22]: 30 ×10⁻⁶ cm/s
AUC at 168 h [23]: 63 µM·h
IC50 [24]: 0.4 nM
fraction unbound at 4 h [26]: 0.131
clearance [27]: 11 mL/min/kg
Kp uu [30]: 0.3
efflux ratio at 3 h [32]: 2.1
AUC at 168 h [36]: 14 µM·h
solubility kinetic at 24 h [37]: < 3 µM
Structure (SMILES): C[C@@]1(N2CCN(c3cc4cc(NC(=O)[C@H]5CC56CCOCC6)ncc4cc3Cl)CC2)COC[C@@H]1O
Activity [1]: Non-Toxic
Activity [2]: Non-Toxic
Activity [4]: Toxic
Activity [5]: Toxic
Activity [6]: Non-Toxic
Activity [10]: Toxic
Activity [12]: Toxic
Activity [13]: Toxic
Activity [14]: Non-Toxic
inhibition at 30 µM [16]: 39%
Activity [18]: Toxic
NOAEL at 168 h [19]: 225 mg/kg/day
Activity [25]: Non-Toxic
Activity [28]: Non-Toxic
Activity [29]: Non-Toxic
fIC50 [31]: 7 nM
Activity [33]: Non-Toxic
fIC50 [34]: 33 nM
Activity [35]: Non-Toxic
inhibition at 10 µM [38]: 15%
Activity [39]: Non-Toxic
